Laboratory results published in PubChem BioAssay (NCI).
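Five concentrations, 48 hours, 96-well plates. TGI marks complete inhibition of growth.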

How the values were obtained:
Experiment in all cases: inhibition of tumour cell growth, NCI panel, 48 h
786-0 renal = test system: 786-0 renal
ACHN renal = test system: ACHN renal
EKVX NSCLC = test system: EKVX NSCLC
HCC-2998 colon = test system: HCC-2998 colon
HCT-116 colon = test system: HCT-116 colon
HL-60(TB) leukemia = test system: HL-60(TB) leukemia
KM12 colon = test system: KM12 colon
MDA-MB-435 = test system: MDA-MB-435
MDA-N = test system: MDA-N
NCI-H226 lung = test system: NCI-H226 lung
OVCAR-4 ovarian = test system: OVCAR-4 ovarian
PC-3 prostate = test system: PC-3 prostate
RPMI-8226 leukemia = test system: RPMI-8226 leukemia
SF-295 CNS = test system: SF-295 CNS
SK-MEL-5 melanoma = test system: SK-MEL-5 melanoma
SN12C renal = test system: SN12C renal
T-47D breast = test system: T-47D breast
TK-10 renal = test system: TK-10 renal

SMILES | TGI (786-0 renal) [µM] | TGI (ACHN renal) [µM] | TGI (EKVX NSCLC) [µM] | TGI (HCC-2998 colon) [µM] | TGI (HCT-116 colon) [µM] | TGI (HL-60(TB) leukemia) [µM] | TGI (KM12 colon) [µM] | TGI (MDA-MB-435) [µM] | TGI (MDA-N) [µM] | TGI (NCI-H226 lung) [µM] | TGI (OVCAR-4 ovarian) [µM] | TGI (PC-3 prostate) [µM] | TGI (RPMI-8226 leukemia) [µM] | TGI (SF-295 CNS) [µM] | TGI (SK-MEL-5 melanoma) [µM] | TGI (SN12C renal) [µM] | TGI (T-47D breast) [µM] | TGI (TK-10 renal) [µM]
CC(=NNC(=S)Nc1cccc(C)c1)c1cccc(C(C)=NNC(=S)Nc2cccc(C)c2)n1 | 63.6 | 46.4 | > 100 | > 100 | 37.8 | 70.1 | 59.3 | > 100 | > 100 | 95.1 | 38.5 | > 100 | > 100 | 34 | 30.8 | > 100 | > 100 | 61.5
O=C(SC1=NCCN1)c1cccc2ccccc12 | > 100 | > 100 | > 100 | > 100 | > 100 | 67 | > 100 | > 100 | > 100 | > 100 | > 100 | > 100 | 94.6 | > 100 | > 100 | > 100 | > 100 | > 100
COC(=O)c1ccccc1NC(=NC1CCCCCC1)NS(=O)(=O)c1ccc(C)cc1 | > 100 | > 100 | > 100 | > 100 | > 100 | > 100 | > 100 | > 100 | > 100 | > 100 | > 100 | > 100 | > 100 | > 100 | > 100 | > 100 | > 100 | > 100
O=C(OCc1ccc([N+](=O)[O-])cc1)N1c2ccccc2[C@@]23O[C@]24CCC[C@H]3C#C/C=C\C#C[C@H]14 | > 100 | > 100 | > 100 | > 100 | > 100 | > 100 | > 100 | > 100 | > 100 | > 100 | > 100 | > 100 | – | > 100 | > 100 | > 100 | > 100 | > 100
Cc1cc(C)c(O)c(CN2CCN(C(C)C)CCN(C(C)C)CC2)c1 | > 100 | > 100 | > 100 | 40.8 | 85.2 | 71 | 46.5 | 64.4 | 68.3 | > 100 | > 100 | > 100 | > 100 | 85.3 | – | 83.9 | 61 | > 100
CCOC(=O)C1(N)CCc2[nH][nH]c(=O)c2C1 (stereo not drawn) | > 100 | > 100 | > 100 | > 100 | > 100 | > 100 | > 100 | > 100 | > 100 | > 100 | > 100 | > 100 | > 100 | > 100 | > 100 | – | > 100 | > 100
COc1ccc(C2=C(N)c3c(Cl)cccc3C2=O)cc1 | > 100 | > 100 | > 100 | > 100 | > 100 | > 100 | > 100 | > 100 | > 100 | > 100 | > 100 | > 100 | > 100 | > 100 | > 100 | > 100 | > 100 | –
O=c1[nH]nc(Cc2ccccc2)n1CCCl | > 100 | – | > 100 | > 100 | > 100 | > 100 | > 100 | > 100 | > 100 | > 100 | > 100 | > 100 | > 100 | > 100 | – | > 100 | > 100 | –
CCN(CC)CCN(C(=Nc1ccccc1)N1CCCCC1)c1ccccc1 | 85.9 | – | > 100 | 19.9 | 3.35 | 6.95 | 23.9 | 20.6 | 11.2 | 29.3 | 57.8 | 24.8 | 8.71 | 17.9 | 17.6 | 29 | 9.92 | 97.8
COc1cc2oc(-c3ccc4c(c3)OCO4)c(OC)c(=O)c2c(OC)c1O | 43.9 | > 100 | > 100 | > 100 | > 100 | 84 | > 100 | > 100 | > 100 | > 100 | > 100 | > 100 | – | > 100 | > 100 | > 100 | > 100 | > 100
CCN(CC)C1CCC(C2c3cc4c(cc3OC(N3CCOCC3)C2C)OCO4)CC1 (stereo not drawn) | > 100 | > 100 | > 100 | 40.3 | > 100 | 89.8 | > 100 | > 100 | 38 | – | > 100 | > 100 | > 55.5 | > 100 | > 55.7 | > 100 | > 96.7 | > 100
O=c1cc(CSc2c(-c3ccccc3)c(=O)n(-c3ccccc3)c(=S)n2-c2ccccc2)[nH]c(=O)[nH]1 | > 100 | > 100 | > 100 | > 100 | > 100 | > 100 | > 100 | > 100 | > 100 | – | – | > 100 | > 100 | – | > 100 | > 100 | > 100 | > 100
